# Entries after “also recorded” stand apart in the source; their conditions may differ.
# What was measured:
# [1] = test system: rat model of dry eye caused by low tear secretion; assay: Rat model of dry eye caused by low tear secretion (atropine): lacrimal secretion test (Schirmer's test II); type: in vivo, SD rats
# Method: 1.2.2 Modeling: a rat model of dry eye caused by low tear secretion, was established using the Burgalassi method of atropine injection into the lacrimal glands; eighteen laboratory rats, with equal numbers of male and female, were given 0.4% oxybucaine hydrochloride eye drops in both eyes and injected with 0.25 mL of 0.5 mg/mL atropine into the lacrimal glands four times a day for both eyes; the results of lacrimal secretion test were recorded 0.5 hours after the atropine injection every day; and the atropine injection was continued until the 7th day.
# Grouping and administration: six laboratory rats, with equal numbers of male and female, were used as the normal control group and were not modeled; the eighteen successfully modeled laboratory rats were randomly divided into three model groups, with 6 rats in each model group, half male and half female; Model group 1 was the blank control group and received no treatment; Model group 2 was the solvent control group and treated with solvent eye drops that contained a solvent but no TAT-N16 peptide; Model group 3 was the drug treatment group and was treated with eye drops comprising 0.1% TAT-N16 peptide; the eye drops was administered four times a day (1 drop/time) for 7 days; the amount of the lacrimal secretion of each eye was recorded on days 0, 4 and 7 after treatment; the expression levels of P55PIK gene and p55PIK protein in the rat eyes of the normal control group and the model groups were detected.
# 1.2.2.1 Lacrimal secretion test (Schirmer's test II): due to the smaller eyeballs of SD rats compared to human, the Schirmer tear test strips designed for human use were not suitable for use in the SD rats; therefore, the Schirmer's test II was conducted by cutting a 5 mm x 35 mm Schirmer tear test strip into two strips of 2.5 mm×35 mm each, folding the front end, and lightly placing the Schirmer tear test strip at the junction of the posterior-middle ⅓ of the lower eyelid; after 5 minutes, the Schirmer tear test strips were removed; and the length of the Schirmer tear test strips wetted by tears were measured for 2 minutes and the measurement was repeated three times to obtain an average value; the results were recorded before the treatment, and on the 4th and 7th day after treatment.
# [2] = test system: rabbit model of dry eye (0.1% benzalkonium chloride); assay: Rabbit model of dry eye: tear film break-up time test; type: in vivo, New Zealand white rabbits
# Method: 1.2.1 Grouping: thirty New Zealand white rabbits were randomly divided into three groups, each comprising 10 rabbits: a blank control group, a solvent control group, and a drug treatment group.
# 1.2.2 Preparation of a rabbit model of dry eye: the right eye of each rabbit was used to establish a dry eye rabbit model by administering 0.1% benzalkonium chloride eye drops twice a day for 4 weeks. After 4 weeks, the dry eye rabbit model was evaluated, with the conjunctiva appearing dry, tear production being reduced, and Schirmer test values being less than 10 mm/5 min (compared to the control group, where all Schirmer test values were above 10 mm).
# 1.2.3 Drug preparation and usage: a liquid formulation of 0.1% TAT-N16 peptide eye drops were prepared by dissolving the peptide raw materials in physiological saline according to a weight ratio of 0.1%. The eye drops comprising 0.1% TAT-N16 peptide were administered 2 drops, 3 times a day for 7 days. […]
# 1.3 Specimen collection and animal testing were conducted by the same individual. […] The rabbit conjunctiva appearance, fluorescein staining, tear film break-up time were analyzed using a slit lamp before and on days 4 and 7 after treatment; additionally, the Schirmer's test and conjunctival impression cytology (CIC) were carried out.
# 1.3.2 Tear film break-up time test: the fluorescein sodium ophthalmic strips were placed on the lower conjunctival sac for a moment, so that the fluorescein sodium was evenly distributed on the ocular surface; the eyelid was maintained open and observed under cobalt blue filter on a slit lamp; the tear film break-up time was recorded as the number of seconds that elapse between the last blink and the appearance of the first dry spot in the tear film of the cornea; The time from the opening of the eyelid to the appearance of the first dry spot on the tear film was recorded under a slit lamp microscope with cobalt blue light; each eye was measured three times, and the average of the three measurements was recorded in seconds.
# [3] = test system: volunteers diagnosed with dry eye syndrome; assay: Population experiment: volunteers with dry eye syndrome; type: in vivo, human; conditions: 0.1% eye drops, 1-2 drops
# Excerpt: Currently, volunteers have been recruited to test the dry eye therapeutic effect of the 0.1% TAT-N16 peptide eye drops disclosed by the disclosure.
# [4] = single cases, three (case 4: three to five) times a day
substance,measurement,setting,value
"TAT-N16 peptide: cell-penetrating artificial peptide, sequence SEQ ID NO: 2, constructed by linking the peptide N16 to a TAT sequence; P55PIK inhibitor (YGRKKRRQRRRMMPYSTELIFYIEMDP)",Tear secretion compared with the control groups,"[1]; 4th and 7th day of treatment, P<0.05",significantly higher
same,"Schirmer's test II values (x ± s, n = 6)","[1]; after 4 days of treatment, 0.1% eye drops four times a day",5.74 ± 1.59 mm
same,"Schirmer's test II values (x ± s, n = 6)","[1]; after 7 days of treatment, 0.1% eye drops four times a day",8.58 ± 1.73 mm
same,"Schirmer's test II values (x ± s, n = 6)","[1]; before treatment (baseline), drug treatment group, 0.1% eye drops",3.29 ± 1.34 mm
same,Tear film break-up time (BUT) values,"[2]; 0 d / before treatment (baseline), drug treatment group",8.24 ± 1.13 s
same,Tear film break-up time (BUT) values,"[2]; 4 d, 0.1% eye drops 2 drops, 3 times a day",11.72 ± 1.27 s
same,Tear film break-up time (BUT) values,"[2]; 7 d, 0.1% eye drops 2 drops, 3 times a day",15.31 ± 1.85 s
same,Dry eye symptoms within three days of use,"[3]; single case, three times a day",significantly improved
same,Conjunctival congestion after a week of use,[3]; [4],cleared up; also recorded: disappeared
same,Dry eye symptoms after a week of use,[3]; [4],essentially disappeared; also recorded: mostly disappeared; also recorded: disappeared completely; also recorded: largely eliminated
same,Dry eye symptoms on the first day of use,"[3]; single cases, three times a day",improved significantly; also recorded: significantly relief

# — US20230348538A1, “METHOD FOR TREATMENT OF DRY EYE COMPRISNG APPLYING P55PIK INHIBITOR” (Wuhan Yicheng Biological Technology Co., Ltd., priority 2020, published 2023)
